# Test results published in patent publication US20220395496A1 (Hoffmann-La Roche Inc., priority 2019, published 2022).
# What was measured:
# human TLR8 = target: T1, human TLR8 (Homo sapiens, UniProt Q9NR97); experiment: HEK293-Blue-hTLR-8 cells assay (SEAP reporter, R848 stimulation); type: cell-based; details: HEK293-Blue-hTLR8 cells, R848, 20 hrs; lowest tested concentration 0.0032
# T1 sequence (Q9NR97 27-1041): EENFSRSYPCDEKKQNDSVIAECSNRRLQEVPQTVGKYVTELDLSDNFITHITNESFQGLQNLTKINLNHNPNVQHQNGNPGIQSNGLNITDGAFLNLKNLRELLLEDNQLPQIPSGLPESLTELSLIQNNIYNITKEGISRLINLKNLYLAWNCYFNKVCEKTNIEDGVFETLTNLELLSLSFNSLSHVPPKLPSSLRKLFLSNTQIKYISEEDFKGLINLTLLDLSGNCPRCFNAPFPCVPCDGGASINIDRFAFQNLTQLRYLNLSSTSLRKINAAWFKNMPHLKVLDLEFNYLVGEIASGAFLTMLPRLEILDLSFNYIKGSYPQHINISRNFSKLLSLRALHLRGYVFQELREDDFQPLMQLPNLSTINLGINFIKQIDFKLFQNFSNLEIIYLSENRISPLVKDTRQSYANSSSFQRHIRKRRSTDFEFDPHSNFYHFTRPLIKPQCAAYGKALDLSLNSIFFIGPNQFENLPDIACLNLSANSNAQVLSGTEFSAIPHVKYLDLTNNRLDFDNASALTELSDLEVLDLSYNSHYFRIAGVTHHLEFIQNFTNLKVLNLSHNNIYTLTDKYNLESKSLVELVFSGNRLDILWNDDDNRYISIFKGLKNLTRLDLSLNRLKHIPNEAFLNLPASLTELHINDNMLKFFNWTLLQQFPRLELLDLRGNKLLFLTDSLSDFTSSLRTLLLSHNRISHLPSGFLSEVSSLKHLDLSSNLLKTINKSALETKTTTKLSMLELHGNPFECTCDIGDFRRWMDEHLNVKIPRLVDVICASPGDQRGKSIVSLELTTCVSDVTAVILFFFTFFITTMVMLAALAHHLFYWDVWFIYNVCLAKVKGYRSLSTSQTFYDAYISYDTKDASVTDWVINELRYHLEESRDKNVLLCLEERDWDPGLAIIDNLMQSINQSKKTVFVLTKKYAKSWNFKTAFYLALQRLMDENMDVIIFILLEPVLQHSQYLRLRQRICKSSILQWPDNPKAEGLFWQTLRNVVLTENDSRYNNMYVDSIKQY
# Method: The following tests were carried out in order to determine the activity of the compounds of this invention in HEK293-Blue-hTLR-7/8/9 cells assay.
# HEK293-Blue-hTLR-8 Cells Assay:
# A stable HEK293-Blue-hTLR-8 cell line was purchased from InvivoGen (Cat. #: hkb-htlr8, San Diego, Calif., USA). These cells were originally designed for studying the stimulation of human TLR8 by monitoring the activation of NF-κB. A SEAP (secreted embryonic alkaline phosphatase) reporter gene was placed under the control of the IFN-β minimal promoter fused to five NF-κB and AP-1-binding sites. The SEAP was induced by activating NF-κB and AP-1 via stimulating HEK-Blue hTLR8 cells with TLR8 ligands. Therefore the reporter expression was declined by TLR8 antagonist under the stimulation of a ligand, such as R848, for incubation of 20 hrs. The cell culture supernatant SEAP reporter activity was determined using QUANTI-Blue™kit (Cat. #: rep-qb1, Invivogen, San Diego, Calif., USA) at a wavelength of 640 nm, a detection medium that turns purple or blue in the presence of alkaline phosphatase.
# HEK293-Blue-hTLR8 cells were incubated at a density of […] cells/mL in a volume of 170 μL in a 96-well plate in Dulbecco's Modified Eagle's medium (DMEM) containing 4.5 g/L glucose, 50 U/mL penicillin, […], […], 2 mM L-glutamine, 10% (v/v) heat-inactivated fetal bovine serum with addition of 20 μL test compound in a serial dilution in the presence of final DMSO at 1% and 10 μL of 60 uM R848 in above DMEM, perform incubation under 37° C. in a CO2 incubator for 20 hrs. Then 20 μL of the supernatant from each well was incubated with 180 μL Quanti-blue substrate solution at 37° C. for 2 hrs and the absorbance was read at 620˜655 nm using a spectrophotometer. The signalling pathway that TLR8 activation leads to downstream NF-κB activation has been widely accepted, and therefore similar reporter assay was modified for evaluating TLR8 antagonist.
# [1] = Human microsome stability assay; type: in vitro ADME; details: human liver microsomes, 1 μM test compound, 0.5 mg/mL protein, 37° C., pH 7.4
# Method: Human Microsome Stability Assay
# The human microsomal stability assay is used for early assessment of metabolic stability of a test compound in human liver microsomes. Compounds with high metabolic stability are considered to be desirable as they can provide favorable in vivo PK profiles and thus sufficient exposure in the targeted tissues or organs
# Human liver microsomes (Cat. NO.: 452117, Corning, USA; Cat. NO.: H2610, Xenotech, USA) were preincubated with test compound for 10 minutes at 37° C. in 100 mM potassium phosphate buffer, pH 7.4. The reactions were initiated by adding NADPH regenerating system. The final incubation mixtures contained 1 μM test compound, 0.5 mg/mL liver microsomal protein, 1 mM MgCl2, 1 mM NADP, 1 unit/mL isocitric dehydrogenase and 6 mM isocitric acid in 100 mM potassium phosphate buffer, pH 7.4. After incubation times of 0, 3, 6, 9, 15 and 30 minutes at 37° C., 300 μL of cold acetonitrile (including internal standard) was added to 100 μL incubation mixture to terminate the reaction. Following precipitation and centrifugation, the amount of compound remaining in the samples were determined by LC-MS/MS. Controls of no NADPH regenerating system at zero and 30 minutes were also prepared and analyzed.
SMILES,IC50 (human TLR8) [nM],HLM [1] [mL/min/kg]
"C[C@H]1C[C@@H](NCc2ccc(C3CCNCC3)cc2)CN(c2ccc(C#N)c3ncccc23)C1 [Example 2, 5-[(3S,5R)-3-methyl-5-[[4-(4-piperidyl)phenyl]methylamino]-1-piperidyl]quinoline-8-carbonitrile]",6,7.0
"C[C@H]1C[C@@H](NCc2ccc(N3CCNCC3)cc2)CN(c2ccc(C#N)n3nccc23)C1 [Example 21, 4-[(3S,5R)-3-methyl-5-[(4-piperazin-1-ylphenyl)methylamino]-1-piperidyl]pyrazolo[1,5-a]pyridine-7-carbonitrile]",42,6.2
"C[C@H]1C[C@@H](NCc2ccc(N3CCNCC3)cc2)CN(c2ccc(Cl)c3ncccc23)C1 [Example 22, (3R,5S)-1-(8-chloro-5-quinolyl)-5-methyl-N-[(4-piperazin-1-ylphenyl)methyl]piperidin-3-amine]",5,
"C[C@H]1C[C@@H](N2Cc3cc(N4CCNCC4)cnc3C2)CN(c2ccc(C#N)c3ncccc23)C1 [Example 23, 5-[(3S,5R)-3-methyl-5-(3-piperazin-1-yl-5,7-dihydropyrrolo[3,4-b]pyridin-6-yl)-1-piperidyl]quinoline-8-carbonitrile]",4,7.3
"C[C@H]1C[C@@H](NCc2cnc(N3CCNCC3)cn2)CN(c2ccc(C#N)c3ncccc23)C1 [Example 31, 5-[(3S,5R)-3-methyl-5-[(5-piperazin-1-ylpyrazin-2-yl)methylamino]-1-piperidyl]quinoline-8-carbonitrile]",< 3.2,
"C[C@H]1C[C@@H](NCc2ccccc2)CN(c2ccc(C#N)c3ncccc23)C1 [Example R1, reference compound]",20,17.3
"C[C@H]1C[C@@H](N2Cc3ccccc3C2)CN(c2ccc(C#N)c3ncccc23)C1 [Example R2, reference compound]",110,18.4

# Next, values leading:
IC50 (human TLR8) [nM],HLM [1] [mL/min/kg],SMILES
< 3.2,7.3,"C[C@H]1C[C@@H](NCc2ccc(N3CCNCC3)cc2)CN(c2ccc(C#N)c3ncccc23)C1 [Example 1, 5-[(3S,5R)-3-methyl-5-[(4-piperazin-1-ylphenyl)methylamino]1-piperidyl]quinoline-8-carbonitrile]"
< 3.2,7.4,C[C@H]1C[C@@H](NCc2ccc(N3CCNCC3)nc2)CN(c2ccc(C#N)c3ncccc23)C1 [Example 10]
< 3.2,6.2,"C[C@H]1C[C@@H](N2Cc3ccc(N4CCNCC4)cc3C2)CN(c2ccc(C#N)c3ncccc23)C1 [Example 12, 5-[(3S,5R)-3-methyl-5-(5-piperazin-1-ylisoindolin-2-yl)-1-piperidyl]quinoline-8-carbonitrile]"
< 3.2,6.8,"C[C@H]1C[C@@H](NCc2cnc(N3CCNCC3)nc2)CN(c2ccc(C#N)c3ncccc23)C1 [Example 17, 5-[(3S,5R)-3-methyl-5-[(2-piperazin-1-ylpyrimidin-5-yl)methylamino]-1-piperidyl]quinoline-8-carbonitrile]"
< 3.2,,"C[C@H]1C[C@@H](NCc2ncc(N3CCNCC3)cn2)CN(c2ccc(C#N)c3ncccc23)C1 [Example 25, 5-[(3S,5R)-3-methyl-5-[(5-piperazin-1-ylpyrimidin-2-yl)methylamino]-1-piperidyl]quinoline-8-carbonitrile]"
≤ 3,,"CC(N[C@@H]1C[C@H](C)CN(c2ccc(C#N)c3ncccc23)C1)c1ccc(N2CCNCC2)cc1 (stereo partly drawn) [Example 26, 5-[(3S,5R)-3-methyl-5-[1-(4-piperazin-1-ylphenyl)ethylamino]-1-piperidyl]quinoline-8-carbonitrile]"
< 3.2,,"C[C@H]1C[C@@H](NCc2cnc(N3CCN[C@H](C)C3)nc2)CN(c2ccc(C#N)c3ncccc23)C1 [Example 28, 5-[(3S,5R)-3-methyl-5-[[2-[(3R)-3-methylpiperazin-1-yl]pyrimidin-5-yl]methylamino]-1-piperidyl]quinoline-8-carbonitrile]"
< 3.2,,"C[C@H]1C[C@@H](NCc2cnc(N3CCN[C@@H](C)C3)nc2)CN(c2ccc(C#N)c3ncccc23)C1 [Example 29, 5-[(3S,5R)-3-methyl-5-[[2-[(3S)-3-methylpiperazin-1-yl]pyrimidin-5-yl]methylamino]-1-piperidyl]quinoline-8-carbonitrile]"
< 3.2,,"C[C@H]1C[C@@H](NCc2ccc3c(n2)CCNC3)CN(c2ccc(C#N)c3ncccc23)C1 [Example 30, 5-[(3S,5R)-3-methyl-5-(5,6,7,8-tetrahydro-1,6-naphthyridin-2-ylmethylamino)-1-piperidyl]quinoline-8-carbonitrile]"
